Counter-ions that a name gives are not always drawn. Like-named read-outs stand apart in the source and are kept apart here.
How the values were obtained:
[1] = test system: chloral hydrate treated mice; experiment: chloral hydrate antagonism test in the mouse (sleeping time); format: in vivo, mouse (male albino mice); conditions: oral 20 mg/kg, followed by 300 mg/kg i.p. chloral hydrate, compared to saline-treated control group, read-out: Percent Reduction in Sleeping Time at 20 mg/kg Body Weight
Experimental: (§1) The compounds of the present invention effectively stimulate the central nervous system of mammals. Compounds having biological activity of this type are generally referred to as being analeptic agents.
According to the chloral hydrate antagonism test, groups of 20 fasted male albino mice are administered an oral dose of 20 milligrams per kilogram of the 1-iminomethylindoline test compound. This is followed immediately by an intraperitoneal dose of 300 milligrams per kilogram of chloral hydrate. The average reduction in sleeping time compared to a saline-treated control group is a measure of the central nervous system stimulant action of the test compound and is as follows for representative 1-iminomethylindolines of this invention.

[2] = test system: phenylquinone writhing syndrome in mice; experiment: prevention of phenylquinone writhing (analgesic activity); format: in vivo; conditions: Mus musculus, sc, 10 min, read-out: ED50 (prevention of phenylquinone writhing)
Experimental: The prevention of this syndrome is employed as a measure of analgesic activity -- Hendershot and Forsaith, J. Pharmacol. Exp. Therap. […] In this test, groups of 10 to 20 mice are injected subcutaneously with graduated doses of the test compound. At the time of a predetermined peak effect, the animals are administered a dose of 2.5 milligrams per kilogram of body weight of phenylquinone intraperitoneally. The latter injection induces writhing episodes in the mice. […] A log dose-response curve is prepared and the dose of the test compound required to decrease the number of writhing episodes of 50 percent is estimated by interpolation.

[3] = test system: chloral hydrate treated mice; experiment: chloral hydrate antagonism test in the mouse (sleeping time); format: in vivo, mouse (male albino mice); conditions: po, read-out: dose producing a 50 percent reduction of the sleeping time
motor activity in rats = experiment: activity cage technique (motor stimulation in rats); format: in vivo, rat
Text: The activity cage technique described by J. W. Kissel, Science, 139, 1224 (1963), was used to measure motor stimulation in rats. […] Since motor stimulation is generally associated with analeptic action, the instant compounds of this invention are unique in the respect that while they are analeptic agents they are not motor stimulants.

[4] = test system: pentobarbital treated cats; experiment: pentobarbital antagonism test in the cat; format: in vivo; conditions: comparison of 4-ethyl-4-methyl-2,6-piperidinedione and the two preferred compounds
Experimental: as §1
The pentobarbital antagonism test for the compounds of the present invention in the cat is carried out in the following fashion. A cat of either sex wherein a chronically indwelling intravenous cannula has been previously surgically inserted, is placed in an observation cubicle measuring 2 ft. × 2ft. × 2ft. The cat is allowed to move about freely at the end of a leash. A dose of 12 milligrams per kilogram of body weight of pentobarbital sodium in aqueous solution is infused at the rate of approximately 2 milligrams per kilogram per minute via tubing contained in the leash. One-half hour after the start of this infusion the cat is in a state of light anesthesia characterized by unconsciousness, immobility, relaxed nictating membrane, and is not responsive to handling but has active pinneal, palpebral and paw-pinch withdrawal reflexes. At this time the 1-iminomethylindoline compound is infused in concentration of 10 milligrams per milliter at a rate of 0.2 milliters per minute until (a) consciousness is restored, (b) a total of 25 milligrams per kilogram of body weight of test compound is administered or (c) mounting toxicity interferes. Consciousness is recognized by the presence of alertness to surroundings as indicated by the ability of the cat's eyes to follow a movement of a nearby object and in its attempts to assume an upright position.
Representative compounds of the present invention wherein a dose of up to 25 milligrams per kilogram of body weight restored consciousness to pentobarbital treated cats are Examples 1-4, 7-10, 12, 15, 17-20, (Table III).

[5] = subcutaneous, phenylquinone 2.5 mg/kg i.p., episodes counted during 10 minutes
[6] = mouse, 300 mg/kg chloral hydrate, comparative test

Compound	inhibition in vivo at 20 mg/kg [1] [%]	ED50 [2, 5] [mg/kg]	also measured
CC(=O)c1ccc2c(c1)CCN2C1=NCCCCC1 [Example 18, 5-Acetyl-1-[7-(3,4,5,6-tetrahydro-2H-azepinyl)]indoline hydrochloride]	17	16.2	
c1ccc2c(c1)CCN2C1=NCCC1 [Example 7, 1-[2-(1-Pyrrolinyl)]indoline hydrochloride]	10	3.85	
CN=CN1CCc2ccccc21.Cl [Example 1, 1-[(Methylimino)methyl]indoline hydrochloride]		21.8	
O=[N+]([O-])c1ccc2c(c1)CCN2C1=NCCCCC1 [Example 21, 1-[7-(3,4,5,6-Tetrahydro-2H-azepinyl)]-5-nitroindoline hydrochloride]	50		
CC1(C)CCC(N2CCc3ccccc32)=N1 [Example 9, 1-[2-(5,5-Dimethyl-1-pyrrolinyl)]-indoline hydrochloride]	65		ED50 [3, 6]: 15 mg/kg; motor activity (motor activity in rats): did not produce an increase in motor activity; comparison of pentobarbital antagonism: restoring consciousness to a pentobarbital treated cat [4]: substantially equiactive
Cl.c1ccc2c(c1)CCN2C1=NCCN1 [Example 13, 1-(2-Imidazolin-2-yl)indoline hydrochloride]		33.2	
c1ccc2c(c1)CCN2C1=NCCCCC1 [Example 11, 1-[7-(3,4,5,6-Tetrahydro-2H-azepinyl)]-indoline hydrochloride]		17.1	
CC(=O)c1ccc2c(c1)CCN2C1=NCCC1 [Example 17, 5-Acetyl-1-[2-(1-pyrrolinyl)]indoline]	62	7.7	ED50 [3, 6]: 10 mg/kg; motor activity (motor activity in rats): did not produce an increase in motor activity; comparison of pentobarbital antagonism: restoring consciousness to a pentobarbital treated cat [4]: substantially equiactive
CC1CCC(N2CCc3ccccc32)=N1 (centres unmarked) [Example 8, 1-[2-(5-Methyl-1-pyrrolinyl)]indoline hydrochloride]	36	13	
Cl.c1ccc2c(c1)CCN2C1=NCCCC1 [Example 10, 1-(3,4,5,6-Tetrahydro-2-pyridyl)-indoline hydrochloride]		5.7	
CC(C)N=CN1CCc2ccccc21 [Example 2, 1-[(Isopropylimino)methyl]indoline hydrochloride hemihydrate]	38		
c1ccc2c(c1)CCN2C1=NCCSC1 [Example 12, 1-[5,6-Dihydro-3-(2H-thiazinyl)]indoline hydrochloride]		11.3	
CN=C(C)N1CCc2ccccc21.Cl [Example 3, 1-[1-(Methylimino)ethyl]indoline hydrochloride]	24	15.8	
CC(=O)Oc1ccccc1C(=O)O [Aspirin, reference compound]			ED50 [2]: 20 mg/kg
CN=C(NC)N1CCc2ccccc21 [Example 4, 1-(N,N'-Dimethylamidino)indoline]	24		
CN=CN1CCc2cc([N+](=O)[O-])ccc21.Cl [Example 19, 1-[(Methylimino)methyl]-5-nitro-indoline hydrochloride]		10.3	
CCC1(C)CC(=O)NC(=O)C1 [4-ethyl-4-methyl-2,6-piperidinedione, reference compound]			ED50 ([3]; Mus musculus): 14.4 mg/kg; comparison of pentobarbital antagonism: restoring consciousness to a pentobarbital treated cat [4]: substantially equiactive
